Earlier results as cited in patent publication US20040084867A1, “Individualization of therapy with anticoagulants” (Xanthus Life Sciences, Inc., priority 2002, published 2004).
Like-named read-outs stand apart in the source and are kept apart here.

Key:
[1] = test system: individuals treated with warfarin; details: cited from earlier work
CYP2C9 [2] = details: cited from earlier work
CYP2C9 [3] = target: CYP2C9 (Homo sapiens, UniProt P11712); details: in vivo; cited from earlier work
[4] = test system: individuals with deep vein thrombosis; details: cited from earlier work

Chain of CYP2C9 (Homo sapiens, UniProt P11712) (P11712 whole entry): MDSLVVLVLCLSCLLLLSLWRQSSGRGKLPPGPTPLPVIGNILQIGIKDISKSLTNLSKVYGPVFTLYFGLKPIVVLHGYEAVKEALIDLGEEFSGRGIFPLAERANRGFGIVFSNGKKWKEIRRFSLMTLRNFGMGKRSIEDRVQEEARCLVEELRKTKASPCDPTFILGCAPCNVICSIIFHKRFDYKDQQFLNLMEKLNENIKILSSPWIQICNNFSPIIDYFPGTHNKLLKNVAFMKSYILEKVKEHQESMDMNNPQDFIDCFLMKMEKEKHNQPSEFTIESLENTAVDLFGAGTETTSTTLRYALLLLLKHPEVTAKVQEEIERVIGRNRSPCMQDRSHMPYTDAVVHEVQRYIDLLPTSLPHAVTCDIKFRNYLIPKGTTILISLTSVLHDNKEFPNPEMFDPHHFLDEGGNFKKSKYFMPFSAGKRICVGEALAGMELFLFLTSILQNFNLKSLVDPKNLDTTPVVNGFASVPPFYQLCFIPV

Compound: CC(=O)CC(c1ccccc1)c1c(O)c2ccccc2oc1=O (racemic) [warfarin]
- effective daily doses ([1]; inter-individual range): 1 to 60 mg/day
- daily dose required to maintain efficacy while avoiding side effects ([1]; varies from one individual to another): 0.5 to 60 mg
- MD (daily maintenance dose) (CYP2C9 [2]; 1 individual, not specified, *3/*3): 0.5 mg/day
- MD (maintenance dose) (CYP2C9 [2]; 38 Caucasian and African-American, *1/*3, *1/*2, *2/*2, CYP2A6*1/*2): MD; 0.307 (*1/*3, *1/*2, *2/*2, CYP2A6*1/*2) mg/kg/wk
- MD (daily maintenance dose) (CYP2C9 [2]; 47 Japanese, *1/*3): 1.75 mg/day
- MD (daily maintenance dose) (CYP2C9 [2]; 47 Japanese, *3/*3): 0.4 mg/day
- MD (daily maintenance dose) (CYP2C9 [2]; 52 British, *1/*2, *2/*2): 3.5 mg/day
- MD (daily maintenance dose) (CYP2C9 [2]; 52 British, *1/*3): 2.5 mg/day
- share of group with at least 1 of *3 or *2 allele (CYP2C9 [2]; 88 British, control group): 1 of *3 or *2 allele vs. only 38% of control
- risks of major bleeding (CYP2C9 [2]; 88 British, low dose group): group; ↑ risks of major bleeding in the low dose
- MD (daily maintenance dose) (CYP2C9 [2]; 94 British, CYP2C9 *1/*2): 3.8 mg/day
- MD (daily maintenance dose) (CYP2C9 [2]; 180 Caucasian, *1/*2, *2/*2): 5.2 mg/day
- MD (daily maintenance dose) (CYP2C9 [2]; 180 Caucasian, *1/*3): 3.8 mg/day
- MD (daily maintenance dose) (CYP2C9 [2]; 180 Caucasian, *2/*3): 1.8 mg/day
- MD (daily maintenance dose) (CYP2C9 [2]; 561 British, *1/*2): 4.31 mg/day
- MD (daily maintenance dose) (CYP2C9 [2]; 561 British, *1/*3): 3.97 mg/day
- MD (daily maintenance dose) (CYP2C9 [2]; 561 British, *2/*2): 3.04 mg/day
- MD (daily maintenance dose) (CYP2C9 [2]; 561 British, *2/*3): 4.09 mg/day
- share of subjects homozygous for CYP2C9*1 (CYP2C9 [2]; subjects requiring a high dose (>55 mg/week)): 83%
- share of subjects heterozygous for CYP2C9*2 (CYP2C9 [2]; subjects requiring a low dose (5-15 mg/week)): 90%
- MD (maintenance dose) (CYP2C9 [3]): vs. 0.397 (*1/*1) mg/kg/wk
- recurrence rate ([4]; Lagerstedt 1985, calf vein thrombosis, heparin 5 days then warfarin 3 months vs only heparin […] days): no recurrences
- incidence of recurrence ([4]; both groups: INR 2.5 to 4.5 and INR 2.0 to 2.5): approximately 2%
